Where two headings read alike, the source gives them in different places.
How the values were obtained:
Assay type in all cases: cell-based
[1] = tested on: HIV isolates with high growth capability; test: Antiretroviral drug response (HIV-RNA copies in PHA-PBMC culture, 7 days), pooled HIV isolates; conditions: for suppression of viral yield in vitro: HIV isolates of Figure 5; for susceptibility of isolates / IC90 values relative to Cmin / Cmax: higher growth capability, without any known drug resistance-related mutation
From the text: (§1) The following nucleotide reverse transcriptase inhibitors were used: emtricitabine (Tokyo Chemical Industry, Tokyo, Japan), lamivudine (Tokyo Chemical Industry, Japan), tenofovir (Selleck Biotech, Tokyo Japan), tenofovir alafenamide (Selleck Biotech, Japan), tenofovir disoproxil fumarate (Tokyo Chemical Industry, Japan), and zidovudine (FUJIFILM Wako, Tokyo, Japan). As it was reported that tenofovir and its prodrugs (tenofovir disoproxil fumarate and tenofovir alafenamide) are measurable in plasma, the antiviral activity of these three synthetic drugs were assessed in vitro [25, 36]. In addition, one non-nucleotide reverse transcriptase inhibitor, efavirenz (Tokyo Chemical Industry, Japan); two protease inhibitors, atazanavir (Selleck Biotech, Japan) and lopinavir (Funakoshi Frontiers in Life Science, Tokyo, Japan); and four integrase inhibitors, bictegravir (Selleck Biotech, Japan), dolutegravir (Selleck Biotech, Japan), elvitegravir (EVG, Selleck Biotech, Japan), and raltegravir (Selleck Biotech, Japan) were analyzed. Representative HIV isolates and a laboratory strain of HIVpNL4-3 were screened for antiretroviral drugs. Briefly, PHA-PBMCs (1.5 × 10^6 cells) were pelleted at 1000 g for 5 min, resuspended with an HIV preparation (10^6 copies) in 100 µL volume, and incubated at 37 °C for 1 h. To remove unbound and non-infectious viruses, the cells were washed twice with RPMI1640 medium and then cultured in different concentrations of antiretroviral compounds (1 mL). The culture was carried out for 7 days, as described above, for growth capability assessment. All procedures were performed in triplicate.
To determine the susceptibility of HIV isolates with high growth capability to synthetic antiretroviral compounds, we used the in vitro susceptibility of the virus (IC90) and pharmacokinetics of an antiretroviral agent (compared to reported Cmin and Cmax).
HIV-RNA in the culture medium (140 µL) was extracted using a QIAamp Viral RNA Mini Kit (QIAGEN KK-Japan, Tokyo, Japan) and subjected to quantitative reverse transcription polymerase chain reaction (qRT-PCR). The amount of HIV-RNA was assayed using a Luna Universal One-Step qRT–PCR kit (New England Biolabs Japan, Tokyo, Japan) and forward (GagB-1F, 5′-[…]-3′, HXB2 position: 1359–1388) and reverse (GagB-1R, 5′-[…]-3′, 1500–1474) primers. The PCR signal was assessed by comparison with a standard curve (encompassing 10^2–10^8 copies/reaction of the in vitro-transcribed RNA transcripts).
The IC50 was calculated using a nonlinear regression curve fit of the dose response curves of each transformed drug concentration and normalized viral load (copies/mL) using GraphPad Prism software (version 8.0). The IC90 was determine using the IC50 and Hill slope factor from the curve fit in the online GraphPad calculator (https://www.graphpad.com/quickcalcs/ECanything1/, accessed on 1 October 2022) for effective concentration. The results are expressed as the mean IC90 of three values obtained in triplicate for each isolate.

HIV isolate DR1509-397 = test: Antiretroviral drug response in PHA-PBMC culture, isolate DR1509-397
Method: as §1, with “The activity of 13 synthetic antiretroviral compounds at concentrations ranging from 0.001 to 20 μM was evaluated against HIV isolates with diverse growth capabilities and without any known drug resistance-related mutation. The” for “The”, “Briefly, PHA-PBMCs (1.5 × 10^6 cells) were pelleted at 1000 g for 5 min, resuspended with an HIV preparation (10^6 copies) in 100 µL volume, and incubated at 37 °C for 1 h. To remove unbound and non-infectious viruses, the cells were washed twice with RPMI1640 medium and then cultured in different concentrations of antiretroviral compounds (1 mL). The culture was carried out for 7 days, as described above, for growth capability assessment. All procedures were performed in triplicate.” left out
HIV-RNA in the culture medium (140 µL) was extracted using a QIAamp Viral RNA Mini Kit (QIAGEN KK-Japan, Tokyo, Japan) and subjected to quantitative reverse transcription polymerase chain reaction (qRT-PCR). […] The PCR signal was assessed by comparison with a standard curve (encompassing 10^2–10^8 copies/reaction of the in vitro-transcribed RNA transcripts).
The IC50 was calculated using a nonlinear regression curve fit of the dose response curves of each transformed drug concentration and normalized viral load (copies/mL) using GraphPad Prism software (version 8.0). […] The results are expressed as the mean IC90 of three values obtained in triplicate for each isolate.

HIV isolate S1506-064 = test: Antiretroviral drug response in PHA-PBMC culture, isolate S1506-064; conditions: Human immunodeficiency virus 1, 168 h, high growth capability, no known mutation against tenofovir, 7 days
Method: as §1, with “The activity of 13 synthetic antiretroviral compounds at concentrations ranging from 0.001 to 20 μM was evaluated against HIV isolates with diverse growth capabilities and without any known drug resistance-related mutation. The” for “The”, “Briefly, PHA-PBMCs (1.5 × 10^6 cells) were pelleted at 1000 g for 5 min, resuspended with an HIV preparation (10^6 copies) in 100 µL volume, and incubated at 37 °C for 1 h. To remove unbound and non-infectious viruses, the cells were washed twice with RPMI1640 medium and then cultured in different concentrations of antiretroviral compounds (1 mL). The culture was carried out for 7 days, as described above, for growth capability assessment. All procedures were performed in triplicate.” left out

HIV isolate DR1606-479 = test: Antiretroviral drug response in PHA-PBMC culture, isolate DR1606-479; conditions: Human immunodeficiency virus 1, 168 h, isolate with drug resistance-related mutation, 7 days
Method: as §1, with “The activity of 13 synthetic antiretroviral compounds at concentrations ranging from 0.001 to 20 μM was evaluated against HIV isolates with diverse growth capabilities and without any known drug resistance-related mutation. The” for “The”, “Briefly, PHA-PBMCs (1.5 × 10^6 cells) were pelleted at 1000 g for 5 min, resuspended with an HIV preparation (10^6 copies) in 100 µL volume, and incubated at 37 °C for 1 h. To remove unbound and non-infectious viruses, the cells were washed twice with RPMI1640 medium and then cultured in different concentrations of antiretroviral compounds (1 mL). The culture was carried out for 7 days, as described above, for growth capability assessment. All procedures were performed in triplicate.” left out

HIV isolate DR1606-521 = test: Antiretroviral drug response in PHA-PBMC culture, isolate DR1606-521
Method: as §1, with “The activity of 13 synthetic antiretroviral compounds at concentrations ranging from 0.001 to 20 μM was evaluated against HIV isolates with diverse growth capabilities and without any known drug resistance-related mutation. The” for “The”, “Briefly, PHA-PBMCs (1.5 × 10^6 cells) were pelleted at 1000 g for 5 min, resuspended with an HIV preparation (10^6 copies) in 100 µL volume, and incubated at 37 °C for 1 h. To remove unbound and non-infectious viruses, the cells were washed twice with RPMI1640 medium and then cultured in different concentrations of antiretroviral compounds (1 mL). The culture was carried out for 7 days, as described above, for growth capability assessment. All procedures were performed in triplicate.” left out

HIV isolate DR1510-726 = test: Antiretroviral drug response in PHA-PBMC culture, isolate DR1510-726; conditions: Human immunodeficiency virus 1, 168 h, isolate with drug resistance-related mutation, 7 days
Method: as §1, with “The activity of 13 synthetic antiretroviral compounds at concentrations ranging from 0.001 to 20 μM was evaluated against HIV isolates with diverse growth capabilities and without any known drug resistance-related mutation. The” for “The”, “Briefly, PHA-PBMCs (1.5 × 10^6 cells) were pelleted at 1000 g for 5 min, resuspended with an HIV preparation (10^6 copies) in 100 µL volume, and incubated at 37 °C for 1 h. To remove unbound and non-infectious viruses, the cells were washed twice with RPMI1640 medium and then cultured in different concentrations of antiretroviral compounds (1 mL). The culture was carried out for 7 days, as described above, for growth capability assessment. All procedures were performed in triplicate.” left out

HIV isolate DR1605-400 = test: Antiretroviral drug response in PHA-PBMC culture, isolate DR1605-400; conditions: Human immunodeficiency virus 1, 168 h, high growth capability, no known drug resistance-related mutation, 7 days
Method: as §1, with “The activity of 13 synthetic antiretroviral compounds at concentrations ranging from 0.001 to 20 μM was evaluated against HIV isolates with diverse growth capabilities and without any known drug resistance-related mutation. The” for “The”, “Briefly, PHA-PBMCs (1.5 × 10^6 cells) were pelleted at 1000 g for 5 min, resuspended with an HIV preparation (10^6 copies) in 100 µL volume, and incubated at 37 °C for 1 h. To remove unbound and non-infectious viruses, the cells were washed twice with RPMI1640 medium and then cultured in different concentrations of antiretroviral compounds (1 mL). The culture was carried out for 7 days, as described above, for growth capability assessment. All procedures were performed in triplicate.” left out

[2] = Human immunodeficiency virus 1, lowest among the 13 compounds, isolate not specified, read-out: lowest IC90 values
[3] = Human immunodeficiency virus 1, read-out: 90% inhibitory concentration (IC90)

## COC(=O)N[C@H](C(=O)N[C@@H](Cc1ccccc1)[C@@H](O)CN(Cc1ccc(-c2ccccn2)cc1)NC(=O)[C@@H](NC(=O)OC)C(C)(C)C)C(C)(C)C [atazanavir]
[1]
  suppression of viral yield in vitro: remarkably suppressed the viral yield
  susceptibility of isolates: retained susceptibility with lower IC90 values
[1]; [2]
  IC90: 1.3 ± 1.12 nM

## O=C(NCc1c(F)cc(F)cc1F)c1cn2c(c(O)c1=O)C(=O)N1[C@H]3CC[C@H](C3)O[C@@H]1C2 [bictegravir]
[1]
  susceptibility of isolates: retained susceptibility with lower IC90 values

## C[C@@H]1CCO[C@H]2Cn3cc(C(=O)NCc4ccc(F)cc4F)c(=O)c(O)c3C(=O)N12 [dolutegravir]
[1]
  suppression of viral yield in vitro: remarkably suppressed the viral yield
  susceptibility of isolates: retained susceptibility with lower IC90 values
[1]; [2]
  IC90: 1.1 ± 0.72 nM

## O=C1Nc2ccc(Cl)cc2[C@@](C#CC2CC2)(C(F)(F)F)O1 [efavirenz]
[1]; [3]
  IC90: 3650 ± 770 nM
[1]
  IC90 values relative to Cmin / Cmax: close to or above Cmin
[1]; isolates both with and without any known drug resistance-related mutation (Figure 5)
  IC90 relative to Cmin: above Cmin

## COc1cc2c(cc1Cc1cccc(Cl)c1F)c(=O)c(C(=O)O)cn2[C@H](CO)C(C)C [elvitegravir]
[1]
  susceptibility of isolates: retained susceptibility with lower IC90 values

## Nc1nc(=O)n([C@@H]2CS[C@H](CO)O2)cc1F [emtricitabine]
[1]; [3]
  IC90: 680 ± 370 nM
[1]
  IC90 values relative to Cmin / Cmax: close to or above Cmin

## Nc1ccn([C@@H]2CS[C@H](CO)O2)c(=O)n1 [lamivudine]
[1]; [3]
  IC90: 6830 ± 3960 nM
[1]
  IC90 values relative to Cmin / Cmax: close to or above Cmin

## Cc1cccc(C)c1OCC(=O)N[C@@H](Cc1ccccc1)[C@@H](O)C[C@H](Cc1ccccc1)NC(=O)[C@H](C(C)C)N1CCCNC1=O [lopinavir]
[1]
  susceptibility of isolates: retained susceptibility with lower IC90 values

## Cc1nnc(C(=O)NC(C)(C)c2nc(C(=O)NCc3ccc(F)cc3)c(O)c(=O)n2C)o1 [raltegravir]
[1]
  susceptibility of isolates: retained susceptibility with lower IC90 values

## CC(C)OC(=O)[C@H](C)N[P@](=O)(CO[C@H](C)Cn1cnc2c(N)ncnc21)Oc1ccccc1 [tenofovir alafenamide]
[1]; [2]
  IC90: 0.3 ± 0.23 nM
[1]
  susceptibility of isolates: retained susceptibility with lower IC90 values
[1]; isolates with drug resistance-related mutations in tenofovir disoproxil fumarate
  activity against resistant isolates: active

## C[C@H](Cn1cnc2c(N)ncnc21)OCP(=O)(O)O [tenofovir]
HIV isolate DR1509-397; Human immunodeficiency virus 1, 168 h, high growth capability, no known drug resistance-related mutation, PHA-PBMC, 7 days, read-out: IC90
  IC90: 2000 ± 400 nM
HIV isolate DR1509-397; Human immunodeficiency virus 1, screened using two additional blood sources (three different blood sources, Figure 2B), read-out: mean IC90
  IC90: 1900 ± 40 nM
HIV isolate DR1509-397; tenofovir at 1 μM (close to Cmax)
  virus production in the presence of drug: hardly showed the decrease in virus production
HIV isolate S1506-064
  IC90: 2800 ± 470 nM
HIV isolate DR1606-479
  IC90: 8500 ± 100 nM
HIV isolate DR1606-521; Human immunodeficiency virus 1, 168 h, isolate with drug resistance-related mutation, PHA-PBMC, 7 days, read-out: IC90
  IC90: 8300 ± 120 nM
HIV isolate DR1606-521; Human immunodeficiency virus 1, tenofovir-resistant isolate, above Cmax (Figure 4), read-out: concentration required to fully suppress the number of viral copies (printed as IC90)
  IC90: 10000 nM
[1]; [3]
  IC90: 2050 ± 400 nM
[1]
  IC90 values relative to Cmin / Cmax: above Cmax
HIV isolate DR1510-726
  IC90: 7700 ± 60 nM
HIV isolate DR1605-400
  IC90: 1400 ± 870 nM

## Cc1cn([C@H]2C[C@H](N=[N+]=[N-])[C@@H](CO)O2)c(=O)[nH]c1=O [zidovudine]
[1]; [2]
  IC90: 1.5 ± 1.11 nM
[1]
  susceptibility of isolates: retained susceptibility with lower IC90 values
